As usually defined, the pIC50 is −log10 of the IC50, conventionally taken in molar units.

pIC50: −log10 of the molar value.

The values below come from patent US8183201B2 (priority 2006, dated 2012).

Test [1] deals with osteoclast precursors (bone marrow hematopoietic cells). The test is classed as cell-based, SD rats. Conditions: read-out: IC50 Osteoclastogenesis.
In test [2] the test system is ovariectomized (OVX) rats. The conditions noted are these: rat, in vivo, po, 1.5 mg/kg.
Test [3] relates to VEGF-induced angiogenesis. The arrangement: species or system C57BL/6 mice. Conditions: mouse, in vivo.
In test [4] the target is T1, Endothelin ETA (Homo sapiens, UniProt P25101).
T1 construct: MDS Pharma services, Taipei, Taiwan (contract assay)
T1 sequence (P25101 21-427): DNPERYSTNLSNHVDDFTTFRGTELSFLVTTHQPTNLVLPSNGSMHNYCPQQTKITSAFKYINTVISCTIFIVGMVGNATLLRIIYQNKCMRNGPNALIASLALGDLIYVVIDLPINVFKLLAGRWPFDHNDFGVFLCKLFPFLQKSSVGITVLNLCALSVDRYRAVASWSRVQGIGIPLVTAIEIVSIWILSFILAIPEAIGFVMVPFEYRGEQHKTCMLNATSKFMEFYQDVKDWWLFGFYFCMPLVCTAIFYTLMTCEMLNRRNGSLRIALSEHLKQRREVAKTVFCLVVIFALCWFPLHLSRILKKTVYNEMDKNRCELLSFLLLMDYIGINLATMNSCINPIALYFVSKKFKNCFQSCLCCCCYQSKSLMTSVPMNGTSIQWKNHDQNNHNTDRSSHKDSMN
The test is classed as binding.

For test [5], the target named is T2, Insulin (Rattus norvegicus, UniProt P15127).
T2 construct: MDS Pharma services, Taipei, Taiwan (contract assay)
T2 sequence (P15127 27-1383): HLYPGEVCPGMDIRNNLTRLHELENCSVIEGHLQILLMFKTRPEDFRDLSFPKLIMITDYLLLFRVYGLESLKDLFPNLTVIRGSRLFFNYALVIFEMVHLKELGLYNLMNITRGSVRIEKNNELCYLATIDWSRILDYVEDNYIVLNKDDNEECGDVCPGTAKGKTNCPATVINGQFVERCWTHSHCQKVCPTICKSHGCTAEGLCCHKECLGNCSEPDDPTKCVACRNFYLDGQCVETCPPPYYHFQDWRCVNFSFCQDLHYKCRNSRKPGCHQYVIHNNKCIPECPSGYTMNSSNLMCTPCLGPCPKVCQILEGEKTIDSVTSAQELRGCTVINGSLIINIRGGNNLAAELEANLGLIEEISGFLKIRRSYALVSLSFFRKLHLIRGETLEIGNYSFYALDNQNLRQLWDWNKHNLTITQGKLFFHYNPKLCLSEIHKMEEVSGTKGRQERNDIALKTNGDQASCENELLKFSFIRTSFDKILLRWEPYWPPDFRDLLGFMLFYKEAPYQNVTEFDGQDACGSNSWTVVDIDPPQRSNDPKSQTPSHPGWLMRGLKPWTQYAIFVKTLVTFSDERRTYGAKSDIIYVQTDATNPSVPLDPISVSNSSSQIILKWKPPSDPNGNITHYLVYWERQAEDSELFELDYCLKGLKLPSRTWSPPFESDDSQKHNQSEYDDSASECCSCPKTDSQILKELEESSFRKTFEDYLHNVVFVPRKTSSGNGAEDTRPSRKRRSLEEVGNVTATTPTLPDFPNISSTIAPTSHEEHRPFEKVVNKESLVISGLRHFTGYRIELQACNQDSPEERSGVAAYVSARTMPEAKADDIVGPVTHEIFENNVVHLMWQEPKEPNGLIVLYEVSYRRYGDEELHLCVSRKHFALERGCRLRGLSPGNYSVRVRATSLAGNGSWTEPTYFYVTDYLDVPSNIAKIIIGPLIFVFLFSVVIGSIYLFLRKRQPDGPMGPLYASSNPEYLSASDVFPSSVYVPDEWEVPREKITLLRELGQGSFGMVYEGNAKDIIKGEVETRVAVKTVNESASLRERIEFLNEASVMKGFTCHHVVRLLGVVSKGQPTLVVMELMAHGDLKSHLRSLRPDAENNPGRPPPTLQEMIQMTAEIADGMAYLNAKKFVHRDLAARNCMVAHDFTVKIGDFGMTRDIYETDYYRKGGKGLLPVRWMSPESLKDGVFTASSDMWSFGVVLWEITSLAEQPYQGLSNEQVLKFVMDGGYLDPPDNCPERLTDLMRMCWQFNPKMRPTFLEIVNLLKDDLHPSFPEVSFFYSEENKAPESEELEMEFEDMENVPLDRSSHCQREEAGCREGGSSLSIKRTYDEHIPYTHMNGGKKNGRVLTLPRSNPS
The test is classed as binding.

Test [6] deals with TGF-β. The test is classed as binding.
Test [7] concerns VEGF. The test is classed as binding.
The subject of test [8] is hypoxic-induced angiogenesis. Also on record: species or system mice. Conditions: mouse, in vivo.

In the case of “RD: rhodostomin variant having a RGD motif variant ^48PRLDMP^53, SEQ ID NO: 36”, the negative-log IC50 (pIC50) in test [1] was 8.48. Besides, in test [2], the “BMC, Femur” value was found to be 0.441 ± 0.018 g; the “BMC, Tibia” value is listed as 0.299 ± 0.011 g; the “BMD, Femur” value was 0.135 ± 0.004 g/cm^2; the “BMD, Tibia” value turned out to be 0.113 ± 0.009 g/cm^2. In addition, in test [2], the “Bone length, Femur” value was 3.71 ± 0.06 mm; the “Bone length, Tibia” value is 4.01 ± 0.03 mm; the Bone volume stood at 16.3 ± 2.7 %; the “Wet weight, Femur” value is given as 985.3 ± 9.8 mg. In test [2], the “Wet weight, Tibia” value is recorded as 749 ± 20.1 mg and the “ovariectomy-induced increase in osteoclast activity (serum C-terminal telopeptide of type-I collagen)” value is “reversed the ovariectomy-induced increase in osteoclast activity”. In test [3], the “hemoglobin content in MATRIGEL plugs” value is given as “reduced hemoglobin content” and the “inhibition of angiogenesis in MATRIGEL plug” value was “effective in inhibiting angiogenesis”. In addition, the “Inhibition, Endothelin ETA” value in test [4] came out at 26%. Besides, the “Inhibition, Insulin” value in test [5] is −6%. In addition, the “Inhibition, TGF-β” value in test [6] was found to be 14%. Moreover, the “Inhibition, VEGF” value in test [7] is on record as −14%. Besides, in test [8], the “reduction of angiogenesis (blood vessel profiles in the inner retina) compared to vehicle ROP group” value is reported as “about 46%”.
